We go through two molecules from patent US8637481B2, “Sensitizing agents for cancer therapy, methods of use and methods for the identification thereof” (University Health Network, priority 2009, dated 2014).

In series [1] the test system is FaDu cells. The experiment in a line: Cell viability assay (MTS). The format is cell-based, human. The settings on record: IR 4 Gy, 96 h post-IR, siRNA 48 h transfection, ALA 250-1000 μM 4 h. The source says: The CeliTiter 96 AQueous One Solution Cell Proliferation Assay (3-(4,5-dimethylthiazol-2-yl)-5-(3-carboxymethoxyphenyl)-2-(4-sulfophenyl)-2H-tetrazolium, inner salt MTS (Promega, Madison, Wis.) was used to detect cell viability according to the manufacturer's specifications.

For series [2], the system named is FaDu cells. The experiment in a line: Apoptotic fraction by flow cytometry post-IR. The format is cell-based, human. Particulars: deferoxamine 5 μM pre-treatment 24 h before IR 4 Gy, 72 h post-IR. The protocol: Flow cytometric analyses were performed on a FACSCalibur Flow Cytometer (BD Biosciences, San Jose, Calif.), equipped with FlowJo software (Tree Star, Ashland, Oreg.). Cell cycle distributions, caspase activation, and mitochondrial membrane potentials were measured as previously described. Intracellular ROS levels were quantified using the non-specific 5-(and 6-)chloromethyl-2′,7′-dichlorodihydrofluorescein diacetate (CM-H2DCFDA) dye, and the superoxide-selective dihydroethidium (DE) dye as instructed by the manufacturer (Invitrogen).
Transfected cells were immediately exposed to a continuous flow of humidified 0.2% O2 with 5% CO2 and balanced N2 (Praxair, Ontario, Canada) in an In Vivo2 400 Hypoxia Chamber (Ruskinn Technology, Pencoed, UK). An OxyLite 4000 oxygen-sensing probe (Oxford Optronix, Oxford, UK) was used to verify target O2 levels.

Consider `Cl.NCC(=O)CCC(=O)O` [ALA, δ-aminolevulinic acid hydrochloride], for which the “cytotoxicity plus IR (cell viability, MTS)” value with FaDu cells [1] is recorded as “negligible effects”. For the molecule deferoxamine mesylate salt, the siUROD-plus-IR-induced apoptosis entry in the series on FaDu cells [2] is “significant suppression”.
